Data as given in US20130172308A1, “ANTIMICROBIAL AGENTS” (John Grant COLLINS, priority 2011, published 2013).

What was measured:
[1] = assay type: physicochemical; conditions: pH 7.4
Procedure: The primary difference between the members of the Rubbn family of complexes is the number of methylene groups in the flexible linking chain. […] Lipophilicity is a significant factor affecting the biological activity of most therapeutic compounds, as it relates to the capacity of the drug to penetrate through the cell membrane. The standard octanol-water partition coefficient (logP) was determined for the Rubbn series (F. Lombardo, B. Faller, M. Shalaeva, I. Tetko and S. Tilton, Methods and Principles in Medicinal Chemistry, 2008, 37, 407) parent model mononuclear species ([Ru(phen)2(Me2bpy)]^2+) and the trinuclear and tetranuclear complexes.
The partition coefficients (logP) were measured using the shake flask technique: each ruthenium complex (at both 0.05 and 0.1 mM) was dissolved in the water phase (0.2 M Na2HPO4—NaH2PO4 buffer, pH=7.4) and an equivalent volume of n-octanol was added.
The two phases were mutually saturated by shaking overnight at ambient temperature and then were allowed to separate on standing. The concentration of the metal complex in each phase was determined spectrophotometrically at l=450 nm.

[2] = tested on: S. aureus ATCC 25923; assay: MIC determination, broth micro-dilution (CAMHB); assay type: cell-based, Staphylococcus aureus; conditions: Table 1; 37° C., 24 h
Procedure: (§1) Four strains of bacteria were chosen for the susceptibility tests: S. aureus ATCC 25923; MRSA (a wild clinical strain from the JCU culture collection); E. coli ATCC 25922 and P. aeruginosa ATCC 27853. The bacteria were grown on Mueller Hinton agar (OXOID, cat. No. CM0337) and suspended in growth medium cation-adjusted Mueller Hinton broth (CAMHB, OXOID, cat. No. CM0405). The MIC of each complex was determined in duplicate by standard micro-dilution methodology (British Society for Antimicrobial Chemotherapy Working Party, J. Antimicrob. Chemother., 1991, 27(suppl. D), 22) using gentamicin as the positive control. The ruthenium complexes were dissolved in CAMHB to a stock solution of […] and two-fold diluted in the broth in 96-well plates in a final volume of […] in each well. The same volume […] of bacterial suspension was added in each well making a concentration range of 0.25 mg ml^−1 to 128 mg ml^−1 for each complex. The plates were incubated at 37° C. for 24 h. The results are summarised in Table 1 below, using the following abbreviations: • Rubpm=ΔΔ-[{Ru(phen)2}2(μ-2,2′-bipyrimidine)]Cl4 • Rudppm=ΔΔ-[{Ru(phen)2}2(μ-4,6-bis(2-pyridyl)pyrimidine)]Cl4 • Rubb7trinuclear=Δ*Δ*-[{Ru*(phen)2}(μ-bb7){Ru(phen)}(μ-bb7){Ru*(phen)2}]Cl6 (only the two terminal metal centres are chiral, the two central metal centres are racemic) • Rubb7tetranuclear=Δ*Δ*-[{Ru*(phen)2}(μ-bb7) {Ru(phen)}(μ-bb7){Ru(phen)}(μ-bb7)-{Ru*(phen)2}]Cl8 (only the two terminal metal centres are chiral, the two central metal centres are racemic)
(§2) Further MIC assays and Minimum Bactericidal Concentration (MBC) assays were conducted against Gram-positive and Gram-negative bacterial strains using symmetric and non-symmetric, inert and labile complexes.

[3] = tested on: MRSA (a wild clinical strain from the JCU culture collection); assay: MIC determination, broth micro-dilution (CAMHB); assay type: cell-based, methicillin-resistant S. aureus; conditions: Table 1; 37° C., 24 h
Procedure: as §1, §2

[4] = tested on: E. coli ATCC 25922; assay: MIC determination, broth micro-dilution (CAMHB); assay type: cell-based, Escherichia coli; conditions: Table 1; 37° C., 24 h
Procedure: as §1, §2

[5] = tested on: P. aeruginosa ATCC 27853; assay: MIC determination, broth micro-dilution (CAMHB); assay type: cell-based, Pseudomonas aeruginosa; conditions: Table 1; 37° C., 24 h
Procedure: as §1, §2

Compound	logP [1]	MIC S. aureus [2] [µg/mL]	MIC MRSA [3] [µg/mL]	MIC E. coli [4] [µg/mL]	MIC P. aeruginosa [5] [µg/mL]
Cc1cc[n+]2c(c1)-c1cc(CCc3cc[n+]4c(c3)-c3cc(C)cc[n+]3[Ru-4]435([n+]4cccc6ccc7ccc[n+]3c7c64)[n+]3cccc4ccc6ccc[n+]5c6c43)cc[n+]1[Ru-4]213([n+]2cccc4ccc5ccc[n+]1c5c42)[n+]1cccc2ccc4ccc[n+]3c4c21 [Rubb2, [{Ru(phen)2}2(μ-bb2)]^4+]	−3.6				
Cc1ccnc(-c2cc(CCCCCCCc3cc[n+]4c(c3)-c3cc(C)cc[n+]3[Ru-4]435([n+]4cccc6ccc7ccc[n+]3c7c64)[n+]3cccc4ccc6ccc[n+]5c6c43)ccn2)c1 [Rubb7mono, Δ-[Ru(phen)2(bb7)]^2+]	−0.7	4	16	16	32
Cc1ccnc(-c2cc(CCCCCCCCCCc3ccnc(-c4cc(C)ccn4)c3)ccn2)c1.F[P-](F)(F)(F)(F)F.F[P-](F)(F)(F)(F)F.F[P-](F)(F)(F)(F)F.F[P-](F)(F)(F)(F)F.[Ru+2].[Ru+2].c1cnc2c(c1)ccc1cccnc12.c1cnc2c(c1)ccc1cccnc12.c1cnc2c(c1)ccc1cccnc12.c1cnc2c(c1)ccc1cccnc12 [Rubb10, [{Ru(phen)2}2(μ-bb10)](PF6)4]	−3.3				
Cc1cc[n+]2c(c1)-c1cc(CCCCCCCCCCCCCCc3cc[n+]4c(c3)-c3cc(C)cc[n+]3[Ru-4]435([n+]4cccc6ccc7ccc[n+]3c7c64)[n+]3cccc4ccc6ccc[n+]5c6c43)cc[n+]1[Ru-4]213([n+]2cccc4ccc5ccc[n+]1c5c42)[n+]1cccc2ccc4ccc[n+]3c4c21.[Cl-].[Cl-].[Cl-].[Cl-] [Rubb14, [{Ru(phen)2}2(μ-bb14)]Cl4]	−2.3				
Cc1cnc2c(ccc3c(C)c(C)cnc32)c1C.Cc1cnc2c(ccc3c(C)c(C)cnc32)c1C.Cc1cnc2c(ccc3c(C)c(C)cnc32)c1C.[Ru+2] [[Ru(Me4phen)3]^2+, reference compound]		0.5	4	8	32
[Ru+2].c1cnc2c(c1)ccc1cccnc12.c1cnc2c(c1)ccc1cccnc12.c1cnc2c(c1)ccc1cccnc12 [[Ru(phen)3]^2+, reference compound]		>128	>128	>128	>128
Cc1cc[n+]2c(c1)-c1cc(CCc3cc[n+]4c(c3)-c3cc(C)cc[n+]3[Ru-4]435([n+]4cccc6ccc7ccc[n+]3c7c64)[n+]3cccc4ccc6ccc[n+]5c6c43)cc[n+]1[Ru-4]213([n+]2cccc4ccc5ccc[n+]1c5c42)[n+]1cccc2ccc4ccc[n+]3c4c21 [ΔΔ-Rubb2, [{Ru(phen)2}2(μ-bb2)]^4+]				>128	
Cc1cc[n+]2c(c1)-c1cc(CCc3cc[n+]4c(c3)-c3cc(C)cc[n+]3[Ru-4]435([n+]4cccc6ccc7ccc[n+]3c7c64)[n+]3cccc4ccc6ccc[n+]5c6c43)cc[n+]1[Ru-4]213([n+]2cccc4ccc5ccc[n+]1c5c42)[n+]1cccc2ccc4ccc[n+]3c4c21 [ΛΛ-Rubb2, [{Ru(phen)2}2(μ-bb2)]^4+]		>128	>128		>128
Cc1cc[n+]2c(c1)-c1cc(CCCCCCCc3cc[n+]4c(c3)-c3cc(C)cc[n+]3[Ru-4]435([n+]4cccc6ccc7ccc[n+]3c7c64)[n+]3cccc4ccc6ccc[n+]5c6c43)cc[n+]1[Ru-4]213([n+]2cccc4ccc5ccc[n+]1c5c42)[n+]1cccc2ccc4ccc[n+]3c4c21.F[P-](F)(F)(F)(F)F.F[P-](F)(F)(F)(F)F.F[P-](F)(F)(F)(F)F.F[P-](F)(F)(F)(F)F [ΛΛ-Rubb7, [{Ru(phen)2}2(μ-bb7)](PF6)4]		64	32	16	64
Cc1ccnc(-c2cc(CCCCCCCCCCc3ccnc(-c4cc(C)ccn4)c3)ccn2)c1.F[P-](F)(F)(F)(F)F.F[P-](F)(F)(F)(F)F.F[P-](F)(F)(F)(F)F.F[P-](F)(F)(F)(F)F.[Ru+2].[Ru+2].c1cnc2c(c1)ccc1cccnc12.c1cnc2c(c1)ccc1cccnc12.c1cnc2c(c1)ccc1cccnc12.c1cnc2c(c1)ccc1cccnc12 [ΛΛ-Rubb10, [{Ru(phen)2}2(μ-bb10)](PF6)4]		8	8	4	32
Cc1cc[n+]2c(c1)-c1cc(CCCCCCCCCCCCCCc3cc[n+]4c(c3)-c3cc(C)cc[n+]3[Ru-4]435([n+]4cccc6ccc7ccc[n+]3c7c64)[n+]3cccc4ccc6ccc[n+]5c6c43)cc[n+]1[Ru-4]213([n+]2cccc4ccc5ccc[n+]1c5c42)[n+]1cccc2ccc4ccc[n+]3c4c21.[Cl-].[Cl-].[Cl-].[Cl-] [ΛΛ-Rubb14, [{Ru(phen)2}2(μ-bb14)]Cl4]		1	1	2	8
Cc1ccnc(-c2cc(CCCCCCCCCCCCCCCCc3ccnc(-c4cc(C)ccn4)c3)ccn2)c1.[Cl-].[Cl-].[Cl-].[Cl-].[Ru+2].[Ru+2].c1cnc2c(c1)ccc1cccnc12.c1cnc2c(c1)ccc1cccnc12.c1cnc2c(c1)ccc1cccnc12.c1cnc2c(c1)ccc1cccnc12 [ΛΛ-Rubb16, [{Ru(phen)2}2(μ-bb16)]Cl4]		1	1	4	8
[Ru(Me2phen)3]^2+ [reference compound]		8	128	128	>128
[{Ru(phen)2}2(μ-bb5)](PF6)4 [Rubb5]	−3.5				
[{Ru(phen)2}2(μ-bb5)](PF6)4 [ΔΔ-Rubb5]		128	128	128	>128
[{Ru(phen)2}2(μ-bb5)](PF6)4 [ΛΛ-Rubb5]		128	128	64	128
[{Ru(phen)2}2(μ-bb12)] [ΛΛ-Rubb12]		2	2	2	16
Δ*Δ*-[{Ru*(phen)2}(μ-bb7) {Ru(phen)}(μ-bb7){Ru(phen)}(μ-bb7)-{Ru*(phen)2}]Cl8 [Rubb7tetranuclear]	−1.9	8	8	32	8
Δ*Δ*-[{Ru*(phen)2}(μ-bb7){Ru(phen)}(μ-bb7){Ru*(phen)2}]Cl6 [Rubb7trinuclear]	−1.2	4	4	16	2
ΔΔ-[{Ru(phen)2}2(μ-bb14)](PF6)4 [ΔΔ-Rubb14]		1	1	4	8
ΔΔ-[{Ru(phen)2}2(μ-bbN7)] [ΔΔ-RubbN7]		>128	>128	>128	>128
ΔΔ-[{Ru(phen)2}2(μ-bbN12)]Cl4 [ΔΔ-RubbN12]		128	128	128	>128
ΔΔ-[{Ru(phen)2}2(μ-bbO7)](PF6)4 [ΔΔ-RubbO7]		128	128	128	>128
